Assay results taken from patent US20200375999A1, “PHARMACEUTICAL COMBINATIONS OF EGFR INHIBITORS AND METHODS OF USE THEREOF” (DANA-FARBER CANCER INSTITUTE, INC., priority 2018, published 2020).
Read-outs that look alike come from different tables or passages of the source.

Legend:
[1] = molecular target: T1, EGFR T790M/L858R Ba/F3 cell line (Homo sapiens, UniProt P00533, T790M/L858R, cells depend on it); test: Ba/F3 cell proliferation (MTS assay), EGFR T790M/L858R; type: cell-based, murine; settings: for Activity (% cetuximab); inhibition of proliferation: compound at 1 μM in the presence of 1 μg/mL cetuximab; for Activity (% cetuximab); inhibition of proliferation / Activity (% DMSO control); inhibition of proliferation: EGFR T790M/L858R Ba/F3; for Activity (% DMSO control); inhibition of proliferation: compound at 1 μM
T1 construct: "The constructs were shuttled into the retroviral vector JP1540 using the BD Creator™ System (BD Biosciences)
T1 sequence (P00533 whole entry T790M/L858R): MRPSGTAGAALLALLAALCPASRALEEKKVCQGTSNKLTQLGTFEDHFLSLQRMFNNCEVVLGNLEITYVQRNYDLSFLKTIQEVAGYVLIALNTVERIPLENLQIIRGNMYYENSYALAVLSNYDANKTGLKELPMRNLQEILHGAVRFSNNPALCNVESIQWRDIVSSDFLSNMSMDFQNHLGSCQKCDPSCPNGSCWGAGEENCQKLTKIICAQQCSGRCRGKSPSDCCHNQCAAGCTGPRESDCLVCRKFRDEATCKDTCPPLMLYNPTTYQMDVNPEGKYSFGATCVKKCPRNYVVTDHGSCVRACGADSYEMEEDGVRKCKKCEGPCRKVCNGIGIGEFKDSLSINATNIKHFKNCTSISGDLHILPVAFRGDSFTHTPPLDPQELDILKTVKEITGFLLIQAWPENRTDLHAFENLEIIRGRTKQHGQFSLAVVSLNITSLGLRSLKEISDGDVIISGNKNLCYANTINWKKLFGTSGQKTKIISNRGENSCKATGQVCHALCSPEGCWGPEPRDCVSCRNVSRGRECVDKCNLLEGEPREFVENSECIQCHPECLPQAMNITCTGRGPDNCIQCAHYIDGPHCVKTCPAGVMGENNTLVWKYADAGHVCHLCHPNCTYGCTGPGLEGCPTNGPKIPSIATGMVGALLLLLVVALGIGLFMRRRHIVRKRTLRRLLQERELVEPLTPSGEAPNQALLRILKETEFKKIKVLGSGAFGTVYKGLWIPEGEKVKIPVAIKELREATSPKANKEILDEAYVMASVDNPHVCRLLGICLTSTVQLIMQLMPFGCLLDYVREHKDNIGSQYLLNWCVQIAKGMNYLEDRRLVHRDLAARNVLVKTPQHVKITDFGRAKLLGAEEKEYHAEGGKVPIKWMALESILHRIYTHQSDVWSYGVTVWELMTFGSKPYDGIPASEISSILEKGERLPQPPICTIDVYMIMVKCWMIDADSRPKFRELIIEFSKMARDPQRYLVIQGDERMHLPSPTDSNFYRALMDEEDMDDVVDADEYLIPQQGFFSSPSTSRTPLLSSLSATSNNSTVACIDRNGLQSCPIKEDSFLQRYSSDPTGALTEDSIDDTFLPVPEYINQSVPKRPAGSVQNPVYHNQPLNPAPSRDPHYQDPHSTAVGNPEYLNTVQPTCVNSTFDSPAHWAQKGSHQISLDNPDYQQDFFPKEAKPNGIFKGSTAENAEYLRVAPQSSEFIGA
Protocol: All cell lines were maintained in RPM 1640 (Cellgro; Mediatech Inc., Herndon, Calif.) supplemented with 10% FBS 100 units/mL penicillin, 100 units/mL streptomycin, and 2 mM glutamine. […] The EGFR 1941R mutation was introduced via site directed mutagenesis using the Quick Change Site-Directed Mutagenesis kit (Stratagene: La Jolla, Calif.) according to the manufacturer's instructions. All constructs were confirmed by DNA sequencing. The constructs were shuttled into the retroviral vector JP1540 using the BD Creator™ System (BD Biosciences). Ba/F3 cells were infected with retrovirus and according to standard protocols, as described previously (Zhou 2009). Stable clones were obtained by selection in puromycin (2 μg/ml).
Growth and inhibition of growth was assessed by MTS assay and was performed according to previously established methods (Zhou 2009). The MTS assay is a colorimetric method for determining the number of viable cells that is based on the bioreduction of MTS by cells to a formazan product that is soluble in cell culture medium and can be detected spectrophotometrically. […] All experimental points were set up in six wells and all experiments were repeated at least three times. […] The curves were fitted using anon-linear regression model with a sigmoidal dose response.

[2] = system: EGFR L858R/T790M/C797S Ba/F3 cell line; test: Ba/F3 cell proliferation (MTS assay), EGFR L858R/T790M/C797S; type: cell-based, murine; settings: for Activity (% cetuximab); inhibition of proliferation: compound at 1 μM in the presence of 1 μg/mL cetuximab, EGFR L858R/T790M/C797S; for Activity (% DMSO control); inhibition of proliferation: compound at 1 μM, EGFR L858R/T790M/C797S Ba/F3
Protocol: The EGFR mutant L858R, Del E746_A750, L858R/T790M, DelE746_A750/T790M, L858R/T790M/C797S and Del/T790M/C797S Ba/F3 cells were previously described (Zhou et al., Nature 462, (2009), 1070-1074). All cell lines were maintained in RPM 1640 (Cellgro; Mediatech Inc., Herndon, Calif.) supplemented with 10% FBS 100 units/mL penicillin, 100 units/mL streptomycin, and 2 mM glutamine. L858R cells were maintained in ACL-4 media (Invitrogen, Carlsbad, Calif.) supplemented with 5% FBS, 100 units/mL penicillin, 100 units/mL streptomycin, and 2 mM glutamine. The EGFR 1941R mutation was introduced via site directed mutagenesis using the Quick Change Site-Directed Mutagenesis kit (Stratagene: La Jolla, Calif.) according to the manufacturer's instructions. All constructs were confirmed by DNA sequencing. The constructs were shuttled into the retroviral vector JP1540 using the BD Creator™ System (BD Biosciences). Ba/F3 cells were infected with retrovirus and according to standard protocols, as described previously (Zhou 2009). Stable clones were obtained by selection in puromycin (2 μg/ml).
Growth and inhibition of growth was assessed by MTS assay and was performed according to previously established methods (Zhou 2009). The MTS assay is a colorimetric method for determining the number of viable cells that is based on the bioreduction of MTS by cells to a formazan product that is soluble in cell culture medium and can be detected spectrophotometrically. Ba/F3 cells of different EGFR genotypes were exposed to treatment and the number of cells used per experiment determined empirically and has been previously established (Zhou 2009). All experimental points were set up in six wells and all experiments were repeated at least three times. […] The curves were fitted using anon-linear regression model with a sigmoidal dose response.

[3] = molecular target: T2, recombinant EGFR T790M/L858R kinase (Homo sapiens, UniProt P00533, L858R/T790M); test: HTRF-based EGFR biochemical assay
T2 construct: Constructs spanning residues 696-1022 of the human EGFR; GST (cleaved yes); made in house; host or cells: Sf9 insect cells
T2 sequence (P00533 696-1022 T790M/L858R): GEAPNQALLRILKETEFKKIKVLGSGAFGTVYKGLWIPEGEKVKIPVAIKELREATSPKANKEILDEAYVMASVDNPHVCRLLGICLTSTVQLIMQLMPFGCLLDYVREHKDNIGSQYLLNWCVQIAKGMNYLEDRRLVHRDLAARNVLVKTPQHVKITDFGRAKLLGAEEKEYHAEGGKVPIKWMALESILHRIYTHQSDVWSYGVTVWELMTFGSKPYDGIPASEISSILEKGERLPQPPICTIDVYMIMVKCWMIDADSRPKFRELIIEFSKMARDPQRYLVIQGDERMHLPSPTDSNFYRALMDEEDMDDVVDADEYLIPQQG
Protocol: EGFR kinase proteins were purified by glutathione-affinity chromatography followed by size-exclusion chromatography after cleavage with TEV or thrombin to remove the GST fusion partner following established procedures. (Yun 2008; Yun 2007).
EGFR biochemical assays were carried out using a homogeneous time-resolved fluorescence (HTRF) assay as described previously. The reaction mixtures contained 1 μM biotin-Lck-peptide substrate, wild type or mutant EGFR enzyme in reaction buffer (50 mM HEPES pH 7.1, 10 mM MgCl2, 0.01% BSA. 1 mM TCEP and 0.1 mM Na3VO4) at a final volume of 10 μL. […] All reactions were carried out at room temperature in white ProxiPlate™ 384-well Plus plates (PerkinElmer) and were quenched with 5 μL of 0.2 M EDTA at 60 min. Five μL per well of the detection reagent containing 2.5 ng PT66K (Cis-bio) and 0.05 μg SAXL (Prozyme) were added, and the plates were then incubated at room temperature for 1 hour and read with an EnVision plate reader.

[4] = absence of cetuximab, read-out: Ba/F3 cellular activity (EC50) T790M/L858R
[5] = read-out: Ba/F3 cellular activity (EC50) T790M/L858R + Cetuximab (1 μg/mL), presence of 1 μg/mL cetuximab

| SMILES | EC50 [1, 4] [nM] | Activity (% cetuximab); inhibition of proliferation [1] | Activity (% DMSO control); inhibition of proliferation [1] | EC50 [1, 5] [nM] | Activity (% cetuximab); inhibition of proliferation [2] | Activity (% DMSO control); inhibition of proliferation [2] | IC50 [3] [nM] |
| --- | --- | --- | --- | --- | --- | --- | --- |
| O=C1c2cc(-c3ccc(N4CCNCC4)cc3)ccc2Nc2ccc(F)cc2N1Cc1cccnc1 [Compound I-6] | ≥ 750 | D (75 ≤ D) | D (75 ≤ D) | ≥ 750 | D (75 ≤ D) | D (75 ≤ D) | ≥ 750 |
| CN1CCC(n2cc(-c3ccc4c(c3)C(=O)N(Cc3ccccc3)c3cc(F)ccc3N4)cn2)CC1 [Compound I-3] | ≥ 750 | B (25 ≤ B < 50) | D (75 ≤ D) | < 250 | C (50 ≤ C < 75) | D (75 ≤ D) | < 250 |
| O=C1c2cc(-c3ccc4[nH]ccc4c3)ccc2Nc2ccc(F)cc2N1Cc1cccnc1 [Compound I-9] | ≥ 750 | D (75 ≤ D) | D (75 ≤ D) | ≥ 750 | D (75 ≤ D) | D (75 ≤ D) | ≥ 750 |
| O=C1c2cc(-c3ccc(N4CCNCC4)cc3)ccc2Nc2ccc(F)cc2N1Cc1nccs1 [Compound I-7] | ≥ 750 | C (50 ≤ C < 75) | D (75 ≤ D) | ≥ 750 | D (75 ≤ D) | D (75 ≤ D) | < 250 |
